According to US11028087B2, “2,6-disubstituted-9-cyclopentyl-9H-purines, use thereof as medicaments, and pharmaceutical compositions” (UNIVERZITA PALACKEHO V OLOMOUCI, priority 2017, dated 2021):
Substitutions are numbered along the chain they refer to.

Columns and labels:
[1] = tested on: THP-1 (acute myeloid leukemia, wt FLT3); assay: Calcein AM cytotoxicity assay; format: cell-based; settings: Homo sapiens, 72 h; THP-1; Calcein AM, three days; read-out: EC50 values (μM) THP-1
From the text: (§1) Cytotoxicity of the compounds is the major property determining their anticancer effect in vivo. One of the parameters used, as the basis for cytotoxicity assays, is the integrity of cytoplasmic membrane of viable cells. For example, a microtiter assay, which uses acetomethoxy derivate of calcein (Calcein AM), is widely used for evaluation of cell proliferation and cytotoxicity. This assay is used in drug screening programs and in chemosensitivity testing. Intracellular esterases of viable cells convert calcein AM to green-fluorescent calcein of which signal corresponds to the number of viable cells in the culture.
(§2) We have been using the following cell lines: MV4-11 (acute myeloid leukemia, FLT3-ITD positive), MOLM-13 (acute myeloid leukemia, FLT3-ITD positive), THP-1 (acute myeloid leukemia, wt FLT3), U937 (monocytic leukemia, wt FLT3), EOL-1 (eosinophilic leukaemia, carrying the fusion FIP1L1-PDGFRA), H1703 (non-small cell lung carcinoma, PDGFRA amplification). […] K562 and MCF-7 cell lines were maintained in DMEM supplemented with 10% fetal bovine serum, penicilin (100 U/ml) and streptomycin (100 μg/ml). All cell lines were cultivated at 37° C. in 5% CO2. For cytotoxicity assays, cells were seeded in appropriate densities into 96 well plates and the next day tested compounds were added at various concentrations in triplicates. Three days after drug addition, Calcein AM solution (final concentration 1 μg/ml; Thermo Scientific, USA) was added into each well and incubated for 1 h.

[2] = tested on: MOLM-13 (acute myeloid leukemia, FLT3-ITD positive); assay: Calcein AM cytotoxicity assay; format: cell-based; settings: Homo sapiens, 72 h; MOLM-13; Calcein AM, three days; read-out: EC50 values (μM) MOLM-13
From the text: as §1, §2

[3] = tested on: U937 (monocytic leukemia, wt FLT3); assay: Calcein AM cytotoxicity assay; format: cell-based; settings: Homo sapiens, U-937, 72 h; U937; Calcein AM, three days; read-out: EC50 values (μM) U937
From the text: as §1, §2

[4] = tested on: MV4-11 (acute myeloid leukemia, FLT3-ITD positive); assay: Calcein AM cytotoxicity assay; format: cell-based; settings: Homo sapiens, 72 h; MV4-11; Calcein AM, three days after drug addition; read-out: EC50 values (μM) MV4-11
From the text: as §1, §2

[5] = tested on: MCF-7; assay: Calcein AM cytotoxicity assay; format: cell-based; settings: Homo sapiens, MCF7, 72 h; MCF-7; Calcein AM, three days; read-out: EC50 values (μM) MCF-7
From the text: as §1, §2

[6] = tested on: K562; assay: Calcein AM cytotoxicity assay; format: cell-based; settings: Homo sapiens, 72 h; K562; Calcein AM, three days; read-out: EC50 values (μM) K562
From the text: as §1, §2

[7] = tested on: EOL-1 (eosinophilic leukaemia, carrying the fusion FIP1L1-PDGFRA); assay: Calcein AM cytotoxicity assay; format: cell-based; settings: Homo sapiens, EOL1, 72 h; EOL-1; Calcein AM, three days; read-out: EC50 values (μM) EOL-1
From the text: as §1, §2

[8] = tested on: HL60; assay: Calcein AM cytotoxicity assay; format: cell-based; settings: Homo sapiens, HL-60, 72 h, three days
[9] = tested on: Kasumi-1 (acute myeloid leukemia, KIT mutation Asn822Lys); assay: Calcein AM cytotoxicity assay; format: cell-based; settings: Homo sapiens, 72 h; Kasumi-1; Calcein AM, three days; read-out: EC50 values (μM) Kasumi-1
From the text: as §1
We have been using the following cell lines: MV4-11 (acute myeloid leukemia, FLT3-ITD positive), MOLM-13 (acute myeloid leukemia, FLT3-ITD positive), THP-1 (acute myeloid leukemia, wt FLT3), U937 (monocytic leukemia, wt FLT3), EOL-1 (eosinophilic leukaemia, carrying the fusion FIP1L1-PDGFRA), H1703 (non-small cell lung carcinoma, PDGFRA amplification). They were maintained in RPMI-1640 supplemented with 10% fetal bovine serum, penicillin (100 U/ml) and streptomycin (100 μg/ml). Kasumi-1 (acute myeloid leukemia, KIT mutation Asn822Lys) cells were cultivated in RPMI-1640 supplemented with 15% fetal bovine serum, penicillin (100 U/ml) and streptomycin (100 μg/ml). K562 and MCF-7 cell lines were maintained in DMEM supplemented with 10% fetal bovine serum, penicilin (100 U/ml) and streptomycin (100 μg/ml). All cell lines were cultivated at 37° C. in 5% CO2. For cytotoxicity assays, cells were seeded in appropriate densities into 96 well plates and the next day tested compounds were added at various concentrations in triplicates. Three days after drug addition, Calcein AM solution (final concentration 1 μg/ml; Thermo Scientific, USA) was added into each well and incubated for 1 h. After this incubation period, fluorescence of the live cells was measured at 485 nm/538 nm (ex/em) with a Fluoroskan Ascent microplate reader (Labsystems).

[10] = target: T1, FLT3 WT (Homo sapiens, UniProt P36888); assay: Kinase inhibition assay with [γ-33P]ATP; format: biochemical; settings: AGLT substrate, 1 μM ATP
T1 construct: purchased ProQinase GmbH
T1 sequence (P36888 27-993): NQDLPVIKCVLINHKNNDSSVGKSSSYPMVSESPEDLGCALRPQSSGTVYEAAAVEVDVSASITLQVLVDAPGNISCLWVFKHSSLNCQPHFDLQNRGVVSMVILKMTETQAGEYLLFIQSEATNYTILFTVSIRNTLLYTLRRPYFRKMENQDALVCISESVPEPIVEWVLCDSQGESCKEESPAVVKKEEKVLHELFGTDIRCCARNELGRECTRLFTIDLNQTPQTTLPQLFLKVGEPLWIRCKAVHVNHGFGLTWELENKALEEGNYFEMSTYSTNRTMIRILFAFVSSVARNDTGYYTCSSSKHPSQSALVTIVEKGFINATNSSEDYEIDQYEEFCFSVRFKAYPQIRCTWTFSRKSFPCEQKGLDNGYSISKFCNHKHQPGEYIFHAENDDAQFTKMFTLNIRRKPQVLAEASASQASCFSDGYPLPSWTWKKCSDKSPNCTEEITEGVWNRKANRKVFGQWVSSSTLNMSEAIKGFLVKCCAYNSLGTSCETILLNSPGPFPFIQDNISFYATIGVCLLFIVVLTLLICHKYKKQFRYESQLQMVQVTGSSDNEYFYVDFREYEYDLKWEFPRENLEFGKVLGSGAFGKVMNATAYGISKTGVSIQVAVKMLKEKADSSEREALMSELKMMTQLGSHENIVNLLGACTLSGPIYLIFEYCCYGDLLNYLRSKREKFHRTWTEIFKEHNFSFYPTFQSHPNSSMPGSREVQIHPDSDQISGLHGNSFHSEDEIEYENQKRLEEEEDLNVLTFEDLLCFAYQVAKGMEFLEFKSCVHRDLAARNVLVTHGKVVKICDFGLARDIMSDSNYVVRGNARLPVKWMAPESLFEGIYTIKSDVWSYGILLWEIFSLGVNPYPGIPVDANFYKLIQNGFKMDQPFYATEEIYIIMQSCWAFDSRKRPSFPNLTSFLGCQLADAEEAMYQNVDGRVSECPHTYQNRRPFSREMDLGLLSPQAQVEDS
Description: (§3) CDK1/Cyclin B and CDK2/Cyclin E kinases were produced in Sf9 insect cells via baculoviral infection and purified on a NiNTA column (Qiagen). CDK5/p35 and CDK7Cyclin H/MAT1, FLT3 WT, FLT3-ITD and FLT3 D835 were purchased from ProQinase GmbH. The kinase reactions were assayed with 1 mg/mL histone H1 (for CDK1, CDK2 and CDK5), (YSPTSPS)2KK peptide (for CDK7) or AGLT substrate (for FLT3) in the presence of 15/15/0.15/1.5/1 μM ATP (for CDK1/CDK2/CDK5/CDK7/FLT3), 0.05 μCi [γ-^33P]ATP and of the test compound in a final volume of 10 μL, all in a reaction buffer (60 mM HEPES-NaOH, pH 7.5, 3 mM MgCl2, 3 mM MnCl2, 3 μM Na-orthovanadate, 1.2 mM DTT, 2.5 μg/50 μl PEG20,000). The reactions were stopped by adding 5 μL of 3% aq H3PO4. Aliquots were spotted onto P-81 phosphocellulose (Whatman), washed 3× with 0.5% aq H3PO4 and finally air-dried.

[11] = target: T2, CDK2/Cyclin E (Homo sapiens, UniProt P24941); assay: Kinase inhibition assay with [γ-33P]ATP; format: biochemical; settings: histone H1, 15 μM ATP; read-out: IC50 values (μM) CDK2
T2 construct: made in house; host or cells: Sf9 insect cells, baculoviral infection
Description: as §3

[12] = target: T3, FLT3-ITD (Homo sapiens, UniProt P36888); assay: Kinase inhibition assay with [γ-33P]ATP; format: biochemical; settings: AGLT substrate, 1 μM ATP; read-out: IC50 values (μM) FLT3 ITD
T3 sequence (P36888 1-993): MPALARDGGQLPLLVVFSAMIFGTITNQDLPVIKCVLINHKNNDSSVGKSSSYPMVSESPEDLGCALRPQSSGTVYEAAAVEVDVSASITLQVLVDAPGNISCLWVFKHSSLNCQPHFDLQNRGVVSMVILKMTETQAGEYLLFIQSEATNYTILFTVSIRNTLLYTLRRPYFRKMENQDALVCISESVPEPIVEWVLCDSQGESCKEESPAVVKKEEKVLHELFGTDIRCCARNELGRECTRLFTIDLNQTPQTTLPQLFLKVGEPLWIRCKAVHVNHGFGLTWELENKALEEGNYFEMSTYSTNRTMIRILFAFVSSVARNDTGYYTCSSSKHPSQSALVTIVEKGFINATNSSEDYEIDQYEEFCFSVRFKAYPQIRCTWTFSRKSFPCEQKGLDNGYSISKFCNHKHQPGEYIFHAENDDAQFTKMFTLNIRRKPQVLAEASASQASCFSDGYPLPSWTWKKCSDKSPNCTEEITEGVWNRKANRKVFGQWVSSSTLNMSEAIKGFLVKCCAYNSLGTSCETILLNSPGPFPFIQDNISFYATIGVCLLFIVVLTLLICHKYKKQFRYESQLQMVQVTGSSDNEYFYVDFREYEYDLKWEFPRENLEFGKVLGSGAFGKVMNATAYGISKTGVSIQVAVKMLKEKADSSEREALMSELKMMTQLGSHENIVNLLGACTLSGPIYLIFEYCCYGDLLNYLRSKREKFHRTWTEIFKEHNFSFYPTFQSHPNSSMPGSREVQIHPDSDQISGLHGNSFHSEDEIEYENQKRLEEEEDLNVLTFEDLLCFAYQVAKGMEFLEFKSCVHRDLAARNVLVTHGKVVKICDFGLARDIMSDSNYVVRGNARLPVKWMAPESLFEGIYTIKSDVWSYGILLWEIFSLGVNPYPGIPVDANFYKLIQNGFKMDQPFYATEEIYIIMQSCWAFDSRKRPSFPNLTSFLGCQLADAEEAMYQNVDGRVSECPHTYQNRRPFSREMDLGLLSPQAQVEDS
Description: as §3

[13] = target: T4, FLT3 D835 (Homo sapiens, UniProt P36888); assay: Kinase inhibition assay with [γ-33P]ATP; format: biochemical; settings: AGLT substrate, 1 μM ATP
T4 sequence (P36888 1-993 D835Y): T3 sequence (P36888 1-993) with D835Y
Description: as §3

[14] = target: T5, CDK1/Cyclin B (Homo sapiens, UniProt P06493); assay: Kinase inhibition assay with [γ-33P]ATP; format: biochemical; settings: histone H1, 15 μM ATP
T5 construct: made in house; host or cells: Sf9 insect cells, baculoviral infection
Description: as §3

[15] = target: T6, CDK5/p35 (Homo sapiens, UniProt Q00535); assay: Kinase inhibition assay with [γ-33P]ATP; format: biochemical; settings: histone H1, 0.15 μM ATP
T6 construct: purchased ProQinase GmbH
Description: as §3

T6 sequence (Q00535 whole entry): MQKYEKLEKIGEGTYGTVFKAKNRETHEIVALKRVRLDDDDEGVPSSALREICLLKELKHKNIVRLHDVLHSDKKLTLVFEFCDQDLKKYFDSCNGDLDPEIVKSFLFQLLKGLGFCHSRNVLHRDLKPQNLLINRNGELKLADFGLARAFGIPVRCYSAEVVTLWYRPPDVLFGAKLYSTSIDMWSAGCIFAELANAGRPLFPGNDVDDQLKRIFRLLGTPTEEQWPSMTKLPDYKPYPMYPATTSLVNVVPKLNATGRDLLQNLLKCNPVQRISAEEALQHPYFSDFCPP
T6 sequence (Q15078 whole entry partner): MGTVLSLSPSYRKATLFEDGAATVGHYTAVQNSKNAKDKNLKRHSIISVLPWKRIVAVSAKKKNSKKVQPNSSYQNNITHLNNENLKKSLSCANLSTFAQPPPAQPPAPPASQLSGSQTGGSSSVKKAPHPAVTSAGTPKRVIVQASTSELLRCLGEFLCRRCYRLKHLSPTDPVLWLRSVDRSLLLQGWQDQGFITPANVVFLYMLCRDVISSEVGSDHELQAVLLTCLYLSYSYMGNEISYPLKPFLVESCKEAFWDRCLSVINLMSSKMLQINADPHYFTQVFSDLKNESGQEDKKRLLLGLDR
T5 sequence (P06493 whole entry, species assumed): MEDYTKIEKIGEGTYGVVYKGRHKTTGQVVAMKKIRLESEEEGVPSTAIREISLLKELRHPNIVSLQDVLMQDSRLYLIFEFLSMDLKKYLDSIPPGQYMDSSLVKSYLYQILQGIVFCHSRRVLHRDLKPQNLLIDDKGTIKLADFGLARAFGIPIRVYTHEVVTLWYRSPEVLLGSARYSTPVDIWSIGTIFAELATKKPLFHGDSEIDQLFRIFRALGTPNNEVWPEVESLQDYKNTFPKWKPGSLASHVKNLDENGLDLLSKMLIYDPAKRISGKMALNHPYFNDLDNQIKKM
T5 sequence (P14635 whole entry partner, species assumed): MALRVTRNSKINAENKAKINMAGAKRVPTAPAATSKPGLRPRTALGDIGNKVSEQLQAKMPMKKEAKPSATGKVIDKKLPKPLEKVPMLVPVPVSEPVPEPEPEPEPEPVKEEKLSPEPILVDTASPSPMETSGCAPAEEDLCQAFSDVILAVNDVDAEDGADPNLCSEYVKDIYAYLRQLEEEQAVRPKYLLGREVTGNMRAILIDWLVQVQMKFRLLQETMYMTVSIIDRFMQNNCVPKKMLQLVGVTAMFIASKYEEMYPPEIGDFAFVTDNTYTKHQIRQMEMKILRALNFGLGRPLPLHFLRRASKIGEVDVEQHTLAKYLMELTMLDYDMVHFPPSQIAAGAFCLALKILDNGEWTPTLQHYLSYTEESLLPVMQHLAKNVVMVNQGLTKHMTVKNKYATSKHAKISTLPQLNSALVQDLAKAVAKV

| IC50 [10] | IC50 [11] | IC50 [12] | IC50 [13] | IC50 [14] | IC50 [15] | Compound | EC50 [1] | EC50 [2] | EC50 [3] | EC50 [4] | EC50 [5] | EC50 [6] | EC50 [7] | EC50 [8] | EC50 [9] |
| --- | --- | --- | --- | --- | --- | --- | --- | --- | --- | --- | --- | --- | --- | --- | --- |
| – | – | – | – | – | – | NC1CCC(Nc2nc(Nc3ccc(CN4CC5(COC5)C4)nc3)c3ncn(C4CCCC4)c3n2)CC1 (stereo not drawn) [Compound 5] | 0.903 µM | 0.014 µM | 0.44 µM | 0.011 µM | 0.41 µM | 0.432 µM | 0.019 µM | 1.21 µM | 0.588 µM |
| – | – | – | – | – | – | CCN1CC2(C1)CN(Cc1ccc(Nc3nc(NC4CCC(O)CC4)nc4c3ncn4C3CCCC3)cc1)C2 (stereo not drawn) [Compound 8] | 2.1 µM | 0.056 µM | 1.35 µM | 0.042 µM | 0.22 µM | 0.391 µM | 0.049 µM | 1.42 µM | 0.636 µM |
| 0.015 µM | 0.005 µM | 0.004 µM | 0.004 µM | 0.04 µM | 0.044 µM | CCN1CC2(C1)CN(Cc1ccc(Nc3nc(NCCCN)nc4c3ncn4C3CCCC3)cc1)C2 [Compound 20] | – | – | – | – | – | – | – | – | – |
